Experimental data published in ChEMBL document CHEMBL3301361, “Experimental in vitro DMPK and physicochemical data on a set of publicly disclosed compounds”.

Assay: physchem
Conditions: octan-1-ol/water, pH 7.4, LogD7.4

logD	Compound
2.9	CN(C)CC(O)COc1ccc(Nc2nccc(Nc3cc(Cl)ccc3Cl)n2)cc1 (configuration not stated)
2.9	FC(F)(F)c1cc(COCC(c2ccccc2)N2CCNCC2)cc(C(F)(F)F)c1 (configuration not stated)
2.9	CS(=O)(=O)c1cccc(Nc2nccc(Nc3cccc4ocnc34)n2)c1
2.94	NC(=O)c1cnc(N[C@H]2CCCNC2)c2cc(-c3ccc(F)c(Cl)c3)sc12
2.91	NC(=O)c1sc2nccc(Nc3ccccc3)c2c1N
2.93	COc1ccc(Cn2c(=O)[nH]c3c(=O)n(CC(=O)NC(C(=O)C(F)(F)F)C(C)C)c(-c4ccccc4)cc3c2=O)cc1 (configuration not stated)
2.9	COc1ccccc1C(=O)Nc1nc2ccccc2[nH]1
2.93	CSc1ncccc1C(=O)NCC1CCCCC1
2.9	Cc1cc(Nc2ncc(F)c(N[C@H]3[C@@H](C(N)=O)[C@@H]4C=C[C@H]3C4)n2)ccc1N1CCN(C)CC1
2.9	O=c1ccnc2cc(C#Cc3ccccc3)ccn12
2.9	Nc1ccc2c(c1)C(=O)c1ccccc1-2
2.9	c1ccc(-c2cn3ccccc3n2)cc1
2.9	CCCC(=O)NCc1cncc(-c2ccc(F)cc2OC)c1
2.9	COc1cc(F)ccc1-c1cncc(CNC(=O)C2CC2)c1
2.89	CS(=O)(=O)c1ccc(CC(=O)N(C2CC2)C2CCN(CCC(c3ccccc3)c3ccccc3)CC2)cc1
2.9	CC(=O)Nc1ccc(CC(=O)N(C)C2CCN(CCC(c3ccccc3)c3ccccc3)CC2)cc1
2.9	O=C(Nc1ccccc1)c1cc(Cl)ccc1O
2.9	O=c1oc2cc(O)ccc2cc1-c1ccc(O)cc1
2.9	O=S(=O)(Nc1cc(F)ccc1F)c1ccc(Cl)cc1
2.9	O=C(Nc1ccc(N2CCOCC2)nc1)c1nnc(Nc2ccc(F)c(F)c2)o1
2.87	Cc1ccc(-c2[nH]cnc2C)cc1NC(=O)c1ccc(OCc2ccccn2)cc1

logD	Compound
2.9	CC(=O)N(C)c1ccc2ccn(-c3cc(NC4CC4)n4ncc(C#N)c4n3)c2c1
2.94	CC(=O)Nc1ccc2c(c1)c(-c1cc(NC3CC3)n3ncc(C#N)c3n1)cn2C
2.87	CCn1c(=O)c2c(-c3cncn3C)n(Cc3ccnc4ccc(Cl)cc34)nc2n(CC2CC2)c1=O
2.94	COc1ccc(NC(=O)CSc2nnc(C)n2-c2ccc(C)cc2)cc1
2.94	O=C(NS(=O)(=O)c1cccc(C(F)(F)F)c1)N1CCC(N2CCC(Oc3ccc(Cl)c(Cl)c3)CC2)CC1
2.87	CCc1cc(O)c(Oc2ccc(C(N)=O)cc2F)cc1F
2.93	CNc1cc(C(=O)Nc2ccc(N3CCOCC3)cc2)nc2c(N3CCN(C)CC3)cc(OC)cc12
2.88	CC(=O)N(C)c1ccc(Nc2ncc3cc(-c4ccncc4)ccc3n2)cc1
2.9	CC(C)C[C@H](CO)Nc1nc(SCc2ccncc2)nc2nc(N)sc12
2.92	O=C1C(=O)c2cc(-c3ccccc3F)ccc2-c2ccccc21
2.9	COc1ccc(OC(F)(F)F)cc1CN[C@H]1CCCN[C@H]1c1ccccc1
2.88	CC(=O)NC[C@H]1CN(c2ccc(N3Cc4cccnc4C3)c(F)c2)C(=O)O1
2.89	COc1cc2ncc(C(N)=O)c(Nc3ccccc3Cl)c2cc1OC
2.9	COc1cc2ncc(C(N)=O)c(Nc3cc(F)ccc3F)c2cc1OC
2.9	O=c1oc2ccc(O)cc2cc1-c1ccc(O)cc1
2.9	COC(=O)CCCCCCC(=O)Nc1ccc2c(c1)C(=O)C(=O)c1ccccc1-2
2.9	CC(C)(C)NC(=O)[C@@H]1CN(Cc2cccnc2)CCN1C[C@@H](O)C[C@@H](Cc1ccccc1)C(=O)N[C@H]1c2ccccc2C[C@H]1O
2.9	CS(=O)(=O)c1ccc(C(CCNC(=O)c2ccc(C#N)cc2)c2ccc(F)cc2)cc1 (configuration not stated)
2.89	CCCCC(NC(=O)CC1CCN(Cc2ccn(-c3ccc(C(F)(F)F)cc3)c2)CC1)c1ccc(=O)[nH]c1 (configuration not stated)
2.91	CN1CCN(c2nc(NCCNc3ccc([N+](=O)[O-])cc3)c3ccccc3n2)CC1
2.88	CN(C)CC1CCn2c(c(C3=C(c4cn(C)c5ccccc45)C(=O)NC3=O)c3ccccc32)C1 (configuration not stated)
